Measurements reported in ChEMBL document CHEMBL1201862, “PubChem BioAssay data set” (2004).
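How tested: cells in 96-well plates exposed to compound for 48 hours at five concentrations. GI50 marks 50% less growth.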 Activity calls are given as the source filed them. Cut-off read from the data, not from the text of the source: active = GI50 up to about 1.1 µM and inactive = higher.

Key:
Assay in all cases: NCI tumour cell line growth inhibition, 48 h
786-0 = system: 786-0
A549 = system: A549
ACHN = system: ACHN
CAKI-1 = system: CAKI-1
DMS-114 = system: DMS-114
HCC 2998 = system: HCC 2998
HCT-116 = system: HCT-116
HCT-15 = system: HCT-15
HL-60 = system: HL-60
HOP-92 = system: HOP-92
IGROV-1 = system: IGROV-1
K562 = system: K562
KM-20L2 = system: KM-20L2
KM12 = system: KM12
LOX IMVI = system: LOX IMVI
M14 = system: M14
MOLT-4 = system: MOLT-4
Malme-3M = system: Malme-3M
NCI-H226 = system: NCI-H226
NCI-H23 = system: NCI-H23
OVCAR-3 = system: OVCAR-3
OVCAR-4 = system: OVCAR-4
OVCAR-5 = system: OVCAR-5
RXF 393 = system: RXF 393
SF-268 = system: SF-268
SK-MEL-28 = system: SK-MEL-28
SK-MEL-2 = system: SK-MEL-2
SK-MEL-5 = system: SK-MEL-5
SK-OV-3 = system: SK-OV-3
SN12C = system: SN12C
SNB-19 = system: SNB-19
SNB-75 = system: SNB-75
SNB-78 = system: SNB-78
SR = system: SR
SW-620 = system: SW-620
TK-10 = system: TK-10
U-251 = system: U-251
UACC-62 = system: UACC-62
UO-31 = system: UO-31
A498 = system: A498
BT-549 = system: BT-549
CCRF-CEM = system: CCRF-CEM
COLO 205 = system: COLO 205
DU-145 = system: DU-145
EKVX = system: EKVX
HOP-62 = system: HOP-62
HT-29 = system: HT-29
Hs-578T = system: Hs-578T
MCF7 = system: MCF7
MDA-MB-231 = system: MDA-MB-231
MDA-MB-435 = system: MDA-MB-435
MDA-N = system: MDA-N
NCI-H460 = system: NCI-H460
NCI-H522 = system: NCI-H522
NCI/ADR-RES = system: NCI/ADR-RES
OVCAR-8 = system: OVCAR-8
PC-3 = system: PC-3
RPMI-8226 = system: RPMI-8226
SF-295 = system: SF-295
SF-539 = system: SF-539
T47D = system: T47D
UACC-257 = system: UACC-257

**Q.** Which GI50 (786-0) does the source give for COC1CCCCN1C(=O)c1ccccc1 (stereo not drawn) here?
**A.** > 25.3 µM (inactive)

**Q.** What about the GI50 (A549) of the same compound?
**A.** > 25.3 µM (inactive)

**Q.** What about the GI50 (ACHN) of the same compound?
**A.** > 25.3 µM (inactive)

**Q.** And the GI50 (CAKI-1)?
**A.** > 25.3 µM (inactive)

**Q.** And the GI50 (DMS-114)?
**A.** > 25.3 µM (inactive)

**Q.** What about the GI50 (HCC 2998) of the same compound?
**A.** > 25.3 µM (inactive)

**Q.** And the GI50 (HCT-116)?
**A.** > 25.3 µM (inactive)

**Q.** What about the GI50 (HCT-15) of the same compound?
**A.** > 25.3 µM

**Q.** And the GI50 (HL-60)?
**A.** > 25.3 µM (inactive)

**Q.** What about the GI50 (HOP-92) of the same compound?
**A.** > 25.3 µM (inactive)

**Q.** What about the GI50 (IGROV-1) of the same compound?
**A.** > 25.3 µM (inactive)

**Q.** And the GI50 (K562)?
**A.** > 25.3 µM (inactive)

**Q.** What about the GI50 (KM-20L2) of the same compound?
**A.** > 25.3 µM (inactive)

**Q.** What about the GI50 (KM12) of the same compound?
**A.** > 25.3 µM (inactive)

**Q.** What about the GI50 (LOX IMVI) of the same compound?
**A.** > 25.3 µM (inactive)

**Q.** What about the GI50 (M14) of the same compound?
**A.** > 25.3 µM (inactive)

**Q.** And the GI50 (MOLT-4)?
**A.** > 25.3 µM (inactive)

**Q.** And the GI50 (Malme-3M)?
**A.** > 25.3 µM (inactive)

**Q.** What about the GI50 (NCI-H226) of the same compound?
**A.** > 25.3 µM (inactive)

**Q.** And the GI50 (NCI-H23)?
**A.** > 25.3 µM (inactive)

**Q.** What about the GI50 (OVCAR-3) of the same compound?
**A.** > 25.3 µM (inactive)

**Q.** And the GI50 (OVCAR-4)?
**A.** > 25.3 µM (inactive)

**Q.** What about the GI50 (OVCAR-5) of the same compound?
**A.** > 25.3 µM (inactive)

**Q.** What about the GI50 (RXF 393) of the same compound?
**A.** > 25.3 µM (inactive)

**Q.** What about the GI50 (SF-268) of the same compound?
**A.** > 25.3 µM (inactive)

**Q.** And the GI50 (SK-MEL-28)?
**A.** > 25.3 µM (inactive)

**Q.** What about the GI50 (SK-MEL-2) of the same compound?
**A.** > 25.3 µM (inactive)

**Q.** And the GI50 (SK-MEL-5)?
**A.** > 25.3 µM (inactive)

**Q.** What about the GI50 (SK-OV-3) of the same compound?
**A.** > 25.3 µM (inactive)

**Q.** What about the GI50 (SN12C) of the same compound?
**A.** > 25.3 µM (inactive)

**Q.** What about the GI50 (SNB-19) of the same compound?
**A.** > 25.3 µM (inactive)

**Q.** What about the GI50 (SNB-75) of the same compound?
**A.** > 25.3 µM (inactive)

**Q.** What about the GI50 (SNB-78) of the same compound?
**A.** > 25.3 µM (inactive)

**Q.** What about the GI50 (SR) of the same compound?
**A.** > 25.3 µM (inactive)

**Q.** What about the GI50 (SW-620) of the same compound?
**A.** > 25.3 µM (inactive)

**Q.** And the GI50 (TK-10)?
**A.** > 25.3 µM (inactive)

**Q.** And the GI50 (U-251)?
**A.** > 25.3 µM (inactive)

**Q.** And the GI50 (UACC-62)?
**A.** > 25.3 µM (inactive)

**Q.** And the GI50 (UO-31)?
**A.** > 25.3 µM (inactive)

**Q.** Which GI50 (786-0) does the source give for N#C/C(=C1C=C(Br)/C(=N\O)C=C\1Cl)c1cccc2ccccc12 here?
**A.** 3.34 µM (inactive)

**Q.** What about the GI50 (A498) of the same compound?
**A.** 9.02 µM (inactive)

**Q.** What about the GI50 (A549) of the same compound?
**A.** 9.84 µM (inactive)

**Q.** What about the GI50 (ACHN) of the same compound?
**A.** 11 µM (inactive)

**Q.** And the GI50 (BT-549)?
**A.** 7.43 µM (inactive)

**Q.** And the GI50 (CAKI-1)?
**A.** 3.48 µM (inactive)

**Q.** And the GI50 (CCRF-CEM)?
**A.** 2.62 µM (inactive)

**Q.** And the GI50 (COLO 205)?
**A.** 2.29 µM (inactive)

**Q.** What about the GI50 (DU-145) of the same compound?
**A.** 3.31 µM (inactive)

**Q.** And the GI50 (EKVX)?
**A.** 10.8 µM (inactive)

**Q.** And the GI50 (HCC 2998)?
**A.** 5.77 µM (inactive)

**Q.** What about the GI50 (HCT-116) of the same compound?
**A.** 4 µM (inactive)

**Q.** And the GI50 (HCT-15)?
**A.** 4.73 µM

**Q.** And the GI50 (HL-60)?
**A.** 2.3 µM (inactive)

**Q.** And the GI50 (HOP-62)?
**A.** 10.3 µM (inactive)

**Q.** And the GI50 (HOP-92)?
**A.** 8.57 µM (inactive)

**Q.** What about the GI50 (HT-29) of the same compound?
**A.** 2.26 µM (inactive)

**Q.** What about the GI50 (Hs-578T) of the same compound?
**A.** 3.55 µM (inactive)

**Q.** What about the GI50 (IGROV-1) of the same compound?
**A.** 6.24 µM (inactive)

**Q.** What about the GI50 (K562) of the same compound?
**A.** 3.51 µM (inactive)

**Q.** What about the GI50 (KM12) of the same compound?
**A.** 3.92 µM (inactive)

**Q.** What about the GI50 (LOX IMVI) of the same compound?
**A.** 4.29 µM (inactive)

**Q.** And the GI50 (M14)?
**A.** 2.77 µM (inactive)

**Q.** And the GI50 (MCF7)?
**A.** 4.93 µM (inactive)

**Q.** And the GI50 (MDA-MB-231)?
**A.** 4.32 µM (inactive)

**Q.** And the GI50 (MDA-MB-435)?
**A.** 2.62 µM (inactive)

**Q.** What about the GI50 (MDA-N) of the same compound?
**A.** 1.61 µM (inactive)

**Q.** And the GI50 (MOLT-4)?
**A.** 3.75 µM (inactive)

**Q.** What about the GI50 (Malme-3M) of the same compound?
**A.** 6.37 µM (inactive)

**Q.** What about the GI50 (NCI-H226) of the same compound?
**A.** 2.17 µM (inactive)

**Q.** And the GI50 (NCI-H23)?
**A.** 13.2 µM (inactive)

**Q.** And the GI50 (NCI-H460)?
**A.** 5.16 µM (inactive)

**Q.** What about the GI50 (NCI-H522) of the same compound?
**A.** 2.52 µM (inactive)

**Q.** What about the GI50 (NCI/ADR-RES) of the same compound?
**A.** 4.01 µM (inactive)

**Q.** What about the GI50 (OVCAR-3) of the same compound?
**A.** 2.76 µM (inactive)

**Q.** And the GI50 (OVCAR-4)?
**A.** 2.49 µM (inactive)

**Q.** And the GI50 (OVCAR-5)?
**A.** 3.55 µM (inactive)

**Q.** And the GI50 (OVCAR-8)?
**A.** 6.37 µM (inactive)

**Q.** What about the GI50 (PC-3) of the same compound?
**A.** 2.89 µM (inactive)

**Q.** And the GI50 (RPMI-8226)?
**A.** 5.77 µM (inactive)

**Q.** What about the GI50 (RXF 393) of the same compound?
**A.** 1.37 µM (inactive)

**Q.** What about the GI50 (SF-268) of the same compound?
**A.** 4.47 µM (inactive)

**Q.** What about the GI50 (SF-295) of the same compound?
**A.** 3.12 µM (inactive)

**Q.** What about the GI50 (SF-539) of the same compound?
**A.** 1.96 µM (inactive)

**Q.** What about the GI50 (SK-MEL-28) of the same compound?
**A.** 6.3 µM (inactive)

**Q.** And the GI50 (SK-MEL-2)?
**A.** 2.48 µM (inactive)

**Q.** What about the GI50 (SK-MEL-5) of the same compound?
**A.** 3.42 µM (inactive)

**Q.** What about the GI50 (SK-OV-3) of the same compound?
**A.** 5.33 µM (inactive)

**Q.** And the GI50 (SN12C)?
**A.** 8.49 µM (inactive)

**Q.** And the GI50 (SNB-19)?
**A.** 10.5 µM (inactive)

**Q.** And the GI50 (SNB-75)?
**A.** 0.121 µM (active)

**Q.** What about the GI50 (SR) of the same compound?
**A.** 3.11 µM (inactive)

**Q.** And the GI50 (SW-620)?
**A.** 3.53 µM (inactive)

**Q.** What about the GI50 (T47D) of the same compound?
**A.** 2.38 µM (inactive)

**Q.** And the GI50 (TK-10)?
**A.** 11.5 µM (inactive)

**Q.** What about the GI50 (U-251) of the same compound?
**A.** 2.96 µM (inactive)

**Q.** What about the GI50 (UACC-257) of the same compound?
**A.** 6.62 µM (inactive)

**Q.** And the GI50 (UACC-62)?
**A.** 4.12 µM (inactive)

**Q.** And the GI50 (UO-31)?
**A.** 11 µM (inactive)
